How the values were obtained:
[1] = biological target: Endoplasmic reticulum aminopeptidase 1 (Homo sapiens, UniProt Q9NZ08); assay: Inhibition of human ERAP1 preincubated for 30 to 60 mins followed by addition of Leu-AMC as substrate measured for 15 mins by spectrofluorimetric method
[2] = biological target: Endoplasmic reticulum aminopeptidase 2 (Homo sapiens, UniProt Q6P179); assay: Inhibition of human ERAP2 preincubated for 30 to 60 mins followed by addition of Arg-AMC as substrate measured for 15 mins by spectrofluorimetric method
[3] = Inhibition of Plasmodium falciparum APN preincubated for 30 mins followed by addition of L-Arg-ACC as substrate measured for 15 to 30 mins by fluorescence analysis

Chain of Endoplasmic reticulum aminopeptidase 2 (Q6P179 whole entry): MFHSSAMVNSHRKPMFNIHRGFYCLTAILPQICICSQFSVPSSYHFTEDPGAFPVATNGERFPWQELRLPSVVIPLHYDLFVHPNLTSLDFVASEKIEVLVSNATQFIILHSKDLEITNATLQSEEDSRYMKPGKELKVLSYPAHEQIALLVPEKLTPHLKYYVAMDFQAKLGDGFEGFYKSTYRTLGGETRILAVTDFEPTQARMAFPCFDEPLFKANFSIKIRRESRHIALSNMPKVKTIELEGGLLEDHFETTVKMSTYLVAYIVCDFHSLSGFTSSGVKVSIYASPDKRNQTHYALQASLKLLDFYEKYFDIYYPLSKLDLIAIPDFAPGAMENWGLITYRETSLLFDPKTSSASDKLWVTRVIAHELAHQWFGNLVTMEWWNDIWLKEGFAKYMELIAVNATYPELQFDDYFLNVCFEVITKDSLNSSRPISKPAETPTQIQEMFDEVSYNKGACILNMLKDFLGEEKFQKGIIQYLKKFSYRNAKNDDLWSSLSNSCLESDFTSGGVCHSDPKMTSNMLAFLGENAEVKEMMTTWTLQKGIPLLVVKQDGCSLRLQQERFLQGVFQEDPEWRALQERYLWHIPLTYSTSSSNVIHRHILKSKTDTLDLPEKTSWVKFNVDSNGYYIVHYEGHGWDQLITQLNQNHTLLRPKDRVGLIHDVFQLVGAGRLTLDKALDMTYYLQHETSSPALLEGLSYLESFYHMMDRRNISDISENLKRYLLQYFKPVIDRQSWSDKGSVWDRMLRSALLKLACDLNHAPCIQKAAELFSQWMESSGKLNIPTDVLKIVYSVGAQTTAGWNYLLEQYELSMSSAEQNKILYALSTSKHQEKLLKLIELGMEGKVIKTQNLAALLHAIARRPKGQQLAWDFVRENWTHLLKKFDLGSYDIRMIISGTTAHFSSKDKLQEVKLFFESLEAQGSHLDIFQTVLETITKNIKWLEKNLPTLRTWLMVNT
Chain of Endoplasmic reticulum aminopeptidase 1 (Q9NZ08 whole entry): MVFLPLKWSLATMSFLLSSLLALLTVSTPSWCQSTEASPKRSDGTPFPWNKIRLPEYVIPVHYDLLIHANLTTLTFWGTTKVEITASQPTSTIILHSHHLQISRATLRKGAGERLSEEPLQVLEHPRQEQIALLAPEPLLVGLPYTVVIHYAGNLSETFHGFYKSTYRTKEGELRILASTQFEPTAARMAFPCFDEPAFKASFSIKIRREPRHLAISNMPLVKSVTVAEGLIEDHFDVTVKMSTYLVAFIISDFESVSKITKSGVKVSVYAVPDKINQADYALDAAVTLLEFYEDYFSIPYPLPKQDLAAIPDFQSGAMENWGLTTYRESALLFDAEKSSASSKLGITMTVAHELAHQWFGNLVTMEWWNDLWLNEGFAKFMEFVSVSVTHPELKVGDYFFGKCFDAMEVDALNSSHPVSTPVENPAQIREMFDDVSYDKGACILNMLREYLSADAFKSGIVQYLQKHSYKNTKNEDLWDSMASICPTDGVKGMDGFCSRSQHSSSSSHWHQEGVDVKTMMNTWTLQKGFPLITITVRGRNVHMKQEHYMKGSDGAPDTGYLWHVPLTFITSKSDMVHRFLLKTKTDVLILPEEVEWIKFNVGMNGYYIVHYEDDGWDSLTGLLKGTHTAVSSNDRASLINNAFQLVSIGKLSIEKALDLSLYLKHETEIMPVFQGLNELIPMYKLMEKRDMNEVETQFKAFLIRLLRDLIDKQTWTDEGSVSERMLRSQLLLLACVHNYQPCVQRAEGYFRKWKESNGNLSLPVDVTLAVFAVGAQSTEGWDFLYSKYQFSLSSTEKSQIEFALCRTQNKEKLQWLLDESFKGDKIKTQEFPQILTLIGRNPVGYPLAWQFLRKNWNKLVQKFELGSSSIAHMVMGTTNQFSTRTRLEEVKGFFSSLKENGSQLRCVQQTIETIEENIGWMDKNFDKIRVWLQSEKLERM

Structure (SMILES)	Ki [1] [µM]	Ki [2] [µM]	Ki [3] [µM]
CC(C)C[C@@H](N)P(=O)(O)O	249	> 250	
NC(CCc1ccccc1)P(=O)(O)CC(Cc1ccccc1)C(=O)O (configuration not stated)	19.1	0.35	0.078
Cc1cc(C)cc(CC(CP(=O)(O)C(N)CCc2ccccc2)C(=O)O)c1 (configuration not stated)	> 250	> 250	
NCc1cccc(CC(CP(=O)(O)C(N)CCc2ccccc2)C(=O)O)c1 (configuration not stated)		> 250	
NCc1ccc(CC(CP(=O)(O)C(N)CCc2ccccc2)C(=O)O)cc1 (configuration not stated)		> 250	
NC(CN1CCCCC1)P(=O)(O)O (configuration not stated)	> 250		
NC(CNC1CCCCC1)P(=O)(O)CC(Cc1ccccc1)C(=O)O (configuration not stated)	> 250		
CC(NCC(N)P(=O)(O)O)c1ccccc1 (configuration not stated)	> 250	> 250	
NCc1ccc(CNCC(N)P(=O)(O)O)cc1 (configuration not stated)	> 250		
CNCC(N)P(=O)(O)O (configuration not stated)	> 250	> 250	
CC(C)CNCC(N)P(=O)(O)CC(Cc1ccccc1)C(=O)O (configuration not stated)	> 250		
NC(CNC1CCCCCC1)P(=O)(O)CC(Cc1ccccc1)C(=O)O (configuration not stated)	> 250		
CC(C)(C)c1ccc(CNCC(N)P(=O)(O)O)cc1 (configuration not stated)	> 250		
NC1CCCCC1NCC(N)P(=O)(O)O (configuration not stated)	> 250		
Nc1ccc(CNCC(N)P(=O)(O)O)cc1 (configuration not stated)	> 250		
NC(CNCC1CCNCC1)P(=O)(O)O (configuration not stated)	> 250		
NCC(N)P(=O)(O)CC(Cc1ccccc1)C(=O)O (configuration not stated)	> 250		
NC(CNCC1CCCO1)P(=O)(O)O (configuration not stated)	> 250	> 250	
COc1ccc(CCNCC(N)P(=O)(O)CC(Cc2ccccc2)C(=O)O)cc1 (configuration not stated)	> 250		

Structure (SMILES)	Ki [1] [µM]	Ki [2] [µM]	Ki [3] [µM]
NC(CNCCc1ccccc1)P(=O)(O)O (configuration not stated)	> 250		
CCCNCC(N)P(=O)(O)O (configuration not stated)	> 250	> 250	
NC(CNC1CCCCCC1)P(=O)(O)O (configuration not stated)	> 250		
NC(CN1CCOCC1)P(=O)(O)O (configuration not stated)	> 250	> 250	
COc1ccc(CNCC(N)P(=O)(O)O)cc1 (configuration not stated)	> 250		
CN(C)CCNCC(N)P(=O)(O)O (configuration not stated)	> 250	> 250	
NC(CNCc1ccccc1)P(=O)(O)O (configuration not stated)	> 250	106	
NC(CNC1CCCCC1)P(=O)(O)O (configuration not stated)	> 250		
NCCNCC(N)P(=O)(O)O (configuration not stated)	> 250	> 250	
NCC(N)P(=O)(O)O (configuration not stated)	> 250		
CCCNCC(N)P(=O)(O)CC(Cc1ccccc1)C(=O)O (configuration not stated)	> 250		
COc1ccc(CCNCC(N)P(=O)(O)O)cc1 (configuration not stated)	> 250		
NC(CNCCN1CCNCC1)P(=O)(O)O (configuration not stated)	> 250		
CCCCCCNCC(N)P(=O)(O)O (configuration not stated)	> 250		
NCc1cccc(CC(CP(=O)(O)C(N)CCc2cccnc2)C(=O)O)c1 (configuration not stated)		> 250	
NC(CCc1ccccc1)P(=O)(O)CC(Cc1ccc(O)cc1)C(=O)O (configuration not stated)	6.47	1.04	
N[C@@H](CCc1ccccc1)P(=O)(O)C[C@@H](Cc1ccccc1)C(=O)O (mixture of isomers)	6.27	1.03	
CC(C)C[C@H](N)P(=O)(O)O [LEUCINE PHOSPHONIC ACID]	5.08	> 250	
